Test results taken from PubChem BioAssay (NCI).
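Where inhibition never reached the appropriate level, the endpoint shown equals the highest concentration tested. Otherwise, values were interpolated linearly from a five-concentration, 48-hour dose response in 96-well plates. TGI marks complete inhibition of growth.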

Columns and labels:
Experiment in all cases: NCI-60 cell line screen, 48 h
[1] = test system: PC-3 prostate
[2] = test system: COLO 205 colon
[3] = test system: MDA-N
[4] = test system: NCI/ADR-RES ovarian
[5] = test system: MOLT-4 leukemia
[6] = test system: MDA-MB-231 breast
[7] = test system: NCI-H23 lung
[8] = test system: SF-539 CNS
[9] = test system: HOP-62 NSCLC
[10] = test system: NCI-H522 lung
[11] = test system: UO-31 renal
[12] = test system: 786-0 renal
[13] = test system: CCRF-CEM leukemia
[14] = test system: OVCAR-3 ovarian
[15] = test system: MDA-MB-435
[16] = test system: A549 NSCLC
[17] = test system: OVCAR-8 ovarian
[18] = test system: A498 renal
[19] = test system: HCT-15 colon
[20] = test system: BT-549 breast
[21] = test system: ACHN renal
[22] = test system: DU-145 prostate
[23] = test system: HT29 colon
[24] = test system: UACC-257 melanoma
[25] = test system: HCC-2998 colon
[26] = test system: NCI-H460 lung
[27] = test system: SK-MEL-28 melanoma
[28] = test system: IGROV1 ovarian
[29] = test system: SK-MEL-2 melanoma
[30] = test system: MALME-3M melanoma
[31] = test system: SK-MEL-5 melanoma
[32] = test system: CAKI-1 renal
[33] = test system: OVCAR-4 ovarian
[34] = test system: TK-10 renal
[35] = test system: SF-295 CNS
[36] = test system: LOX IMVI melanoma
[37] = test system: NCI-H226 lung
[38] = test system: HS 578T breast
[39] = test system: K-562 leukemia
[40] = test system: HOP-92 NSCLC
[41] = test system: EKVX NSCLC
[42] = test system: HCT-116 colon
[43] = test system: SNB-75 CNS
[44] = test system: SF-268 CNS
[45] = test system: T-47D breast
[46] = test system: MCF7 breast
[47] = test system: OVCAR-5 ovarian
[48] = test system: HL-60(TB) leukemia
[49] = test system: SN12C renal
[50] = test system: RPMI-8226 leukemia
[51] = test system: SW-620 colon
[52] = test system: U251 CNS
[53] = test system: SK-OV-3 ovarian
[54] = test system: UACC-62 melanoma
[55] = test system: RXF 393 renal
[56] = test system: KM12 colon
[57] = test system: M14 melanoma
[58] = test system: SR leukemia
[59] = test system: SNB-19 CNS

Nc1nc(Cl)cc(NCC2CC(O)(CO)C2)n1 (stereo not drawn)
TGI [1]: > 100 µM
TGI [2]: > 100 µM
TGI [3]: > 100 µM
TGI [4]: > 100 µM
TGI [5]: > 100 µM
TGI [6]: > 100 µM
TGI [7]: > 100 µM
TGI [8]: > 100 µM
TGI [9]: > 100 µM
TGI [10]: > 100 µM
TGI [11]: > 100 µM
TGI [12]: > 100 µM
TGI [13]: > 100 µM
TGI [14]: > 100 µM
TGI [15]: > 100 µM
TGI [16]: > 100 µM
TGI [17]: > 100 µM
TGI [18]: > 100 µM
TGI [19]: > 100 µM
TGI [20]: > 100 µM
TGI [21]: > 100 µM
TGI [22]: > 100 µM
TGI [23]: > 100 µM
TGI [24]: > 100 µM
TGI [25]: > 100 µM
TGI [26]: > 100 µM
TGI [27]: > 100 µM
TGI [28]: > 100 µM
TGI [29]: > 100 µM
TGI [30]: > 100 µM
TGI [31]: > 100 µM
TGI [32]: > 100 µM
TGI [33]: > 100 µM
TGI [34]: > 100 µM
TGI [35]: > 100 µM
TGI [36]: > 100 µM
TGI [37]: > 100 µM
TGI [38]: > 100 µM
TGI [39]: > 100 µM
TGI [40]: > 100 µM
TGI [41]: > 100 µM
TGI [42]: > 100 µM
TGI [43]: > 100 µM
TGI [44]: > 100 µM
TGI [45]: > 100 µM
TGI [46]: > 100 µM
TGI [47]: > 100 µM
TGI [48]: > 100 µM
TGI [49]: > 100 µM
TGI [50]: > 100 µM
TGI [51]: > 100 µM
TGI [52]: > 100 µM
TGI [53]: > 100 µM
TGI [54]: > 100 µM
TGI [55]: > 100 µM
TGI [56]: > 100 µM

COC1OC2COC(c3ccccc3)OC2C(OC(=S)c2ccccc2)C1O (stereo not drawn)
TGI [1]: 74.9 µM
TGI [2]: > 100 µM
TGI [3]: > 100 µM
TGI [4]: 79 µM
TGI [5]: > 100 µM
TGI [57]: > 100 µM
TGI [6]: 78.1 µM
TGI [7]: > 100 µM
TGI [8]: 27.7 µM
TGI [9]: 41.1 µM
TGI [11]: > 100 µM
TGI [13]: > 100 µM
TGI [14]: > 100 µM
TGI [15]: 22.8 µM
TGI [16]: 33.7 µM
TGI [17]: 39.3 µM
TGI [18]: > 100 µM
TGI [19]: > 100 µM
TGI [58]: > 100 µM
TGI [20]: > 100 µM
TGI [21]: > 100 µM
TGI [22]: > 100 µM
TGI [23]: > 100 µM
TGI [24]: > 100 µM
TGI [26]: > 100 µM
TGI [27]: > 100 µM
TGI [28]: > 100 µM
TGI [29]: > 100 µM
TGI [30]: > 100 µM
TGI [31]: > 100 µM
TGI [32]: > 100 µM
TGI [33]: > 100 µM
TGI [34]: > 100 µM
TGI [35]: > 100 µM
TGI [36]: 20.5 µM
TGI [37]: > 100 µM
TGI [59]: > 100 µM
TGI [38]: > 100 µM
TGI [39]: > 100 µM
TGI [40]: > 100 µM
TGI [41]: 5.82 µM
TGI [44]: > 100 µM
TGI [45]: 59.5 µM
TGI [46]: > 100 µM
TGI [47]: > 100 µM
TGI [49]: > 100 µM
TGI [50]: > 100 µM
TGI [51]: > 100 µM
TGI [52]: 26.2 µM
TGI [53]: 58.2 µM
TGI [54]: > 100 µM
TGI [55]: 36.9 µM
